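These data come from cells grown in 96-well plates and exposed to compound for 48 hours at five concentrations. GI50 is the concentration that inhibits growth by half.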 Activity calls are given as the source filed them. No stated cut-off is given here; in the data, active = GI50 up to about 1.1 µM and inactive = higher.
Columns and labels:
Assay in all cases: DTP human tumour cell line panel, 48 h
UACC-62 = system: UACC-62
T47D = system: T47D
HL-60 = system: HL-60
MDA-MB-231 = system: MDA-MB-231
PC-3 = system: PC-3
SNB-19 = system: SNB-19
UACC-257 = system: UACC-257
MCF7 = system: MCF7
RXF 393 = system: RXF 393
SK-MEL-28 = system: SK-MEL-28
CAKI-1 = system: CAKI-1
MDA-MB-435 = system: MDA-MB-435
DU-145 = system: DU-145
SNB-75 = system: SNB-75
SK-MEL-5 = system: SK-MEL-5
BT-549 = system: BT-549
SK-OV-3 = system: SK-OV-3
SK-MEL-2 = system: SK-MEL-2
HT-29 = system: HT-29
NCI-H522 = system: NCI-H522
A549 = system: A549
ACHN = system: ACHN
SN12C = system: SN12C
COLO 205 = system: COLO 205
TK-10 = system: TK-10
KM12 = system: KM12
NCI-H460 = system: NCI-H460
HCC 2998 = system: HCC 2998
U-251 = system: U-251
SR = system: SR
OVCAR-3 = system: OVCAR-3
NCI/ADR-RES = system: NCI/ADR-RES
NCI-H226 = system: NCI-H226
HCT-15 = system: HCT-15
LOX IMVI = system: LOX IMVI
IGROV-1 = system: IGROV-1
OVCAR-5 = system: OVCAR-5
RPMI-8226 = system: RPMI-8226
A498 = system: A498
HOP-92 = system: HOP-92
HCT-116 = system: HCT-116
NCI-H23 = system: NCI-H23
HOP-62 = system: HOP-62
SF-295 = system: SF-295
EKVX = system: EKVX
OVCAR-8 = system: OVCAR-8
MOLT-4 = system: MOLT-4
SF-268 = system: SF-268
Hs-578T = system: Hs-578T
786-0 = system: 786-0
CCRF-CEM = system: CCRF-CEM
M14 = system: M14
Malme-3M = system: Malme-3M
K562 = system: K562
SF-539 = system: SF-539
SW-620 = system: SW-620
MDA-N = system: MDA-N
OVCAR-4 = system: OVCAR-4
UO-31 = system: UO-31

O=CCCCCCOCc1ccccc1
GI50 (UACC-62): > 58.1 µM (inactive)
GI50 (T47D): > 100 µM (inactive)
GI50 (HL-60): 11.6 µM (inactive)
GI50 (MDA-MB-231): > 87.1 µM (inactive)
GI50 (PC-3): > 100 µM (inactive)
GI50 (SNB-19): > 87.1 µM (inactive)
GI50 (UACC-257): > 60.8 µM (inactive)
GI50 (MCF7): 54.8 µM (inactive)
GI50 (RXF 393): > 100 µM (inactive)
GI50 (SK-MEL-28): > 100 µM (inactive)
GI50 (CAKI-1): > 45.8 µM (inactive)
GI50 (MDA-MB-435): > 100 µM (inactive)
GI50 (DU-145): 71.9 µM (inactive)
GI50 (SNB-75): > 78.2 µM (inactive)
GI50 (SK-MEL-5): 25.4 µM (inactive)
GI50 (BT-549): > 100 µM (inactive)
GI50 (SK-OV-3): > 100 µM (inactive)
GI50 (SK-MEL-2): > 100 µM (inactive)
GI50 (HT-29): > 100 µM (inactive)
GI50 (NCI-H522): 20.7 µM (inactive)
GI50 (A549): 43.6 µM (inactive)
GI50 (ACHN): 36.9 µM (inactive)
GI50 (SN12C): 17.7 µM (inactive)
GI50 (COLO 205): > 100 µM (inactive)
GI50 (TK-10): 99.5 µM (inactive)
GI50 (KM12): 54.3 µM (inactive)
GI50 (NCI-H460): 23.3 µM (inactive)
GI50 (HCC 2998): > 100 µM (inactive)
GI50 (U-251): 69.5 µM (inactive)
GI50 (SR): 39.6 µM (inactive)
GI50 (OVCAR-3): > 74 µM (inactive)
GI50 (NCI/ADR-RES): > 55.8 µM (inactive)
GI50 (NCI-H226): > 73.6 µM (inactive)
GI50 (HCT-15): 37.4 µM
GI50 (LOX IMVI): 18.3 µM (inactive)
GI50 (IGROV-1): 40.7 µM (inactive)
GI50 (OVCAR-5): > 100 µM (inactive)
GI50 (RPMI-8226): 25.1 µM (inactive)
GI50 (A498): > 100 µM (inactive)
GI50 (HOP-92): > 100 µM (inactive)
GI50 (HCT-116): 27 µM (inactive)
GI50 (NCI-H23): 50.7 µM (inactive)
GI50 (HOP-62): 29.4 µM (inactive)
GI50 (SF-295): 30.6 µM (inactive)
GI50 (EKVX): > 100 µM (inactive)
GI50 (OVCAR-8): > 69.8 µM (inactive)
GI50 (MOLT-4): 16.9 µM (inactive)
GI50 (SF-268): > 100 µM (inactive)
GI50 (Hs-578T): > 100 µM (inactive)
GI50 (786-0): 23.8 µM (inactive)
GI50 (CCRF-CEM): 28 µM (inactive)
GI50 (M14): > 100 µM (inactive)
GI50 (Malme-3M): > 67.1 µM (inactive)
GI50 (K562): 9.98 µM (inactive)
GI50 (SF-539): > 100 µM (inactive)
GI50 (SW-620): 60.1 µM (inactive)
GI50 (MDA-N): > 100 µM (inactive)
GI50 (OVCAR-4): > 87.5 µM (inactive)
GI50 (UO-31): > 87.1 µM (inactive)

COC1/C=C\OC2(C)Oc3c(C)c(O)c4c(O)c(c(CN(C)C)c(O)c4c3C2=O)NC(=O)/C(C)=C\C=C/C(C)C(O)C(C)C(O)C(C)C(OC(C)=O)C1C (configuration not stated)
GI50 (UACC-62): 18.3 µM (inactive)
GI50 (T47D): 29 µM (inactive)
GI50 (HL-60): 18.5 µM (inactive)
GI50 (MDA-MB-231): 28.8 µM (inactive)
GI50 (PC-3): 23 µM (inactive)
GI50 (SNB-19): 42.9 µM (inactive)
GI50 (UACC-257): 22.4 µM (inactive)
GI50 (MCF7): 17.9 µM (inactive)
GI50 (RXF 393): 37.8 µM (inactive)
GI50 (SK-MEL-28): 31.4 µM (inactive)
GI50 (CAKI-1): 57.1 µM (inactive)
GI50 (MDA-MB-435): 26.4 µM (inactive)
GI50 (DU-145): 32.3 µM (inactive)
GI50 (SNB-75): 39.3 µM (inactive)
GI50 (SK-MEL-5): 18.5 µM (inactive)
GI50 (BT-549): 31.2 µM (inactive)
GI50 (SK-OV-3): > 100 µM (inactive)
GI50 (SK-MEL-2): 18.7 µM (inactive)
GI50 (HT-29): 20.6 µM (inactive)
GI50 (NCI-H522): 16.2 µM (inactive)
GI50 (A549): 27.4 µM (inactive)
GI50 (ACHN): 61.9 µM (inactive)
GI50 (SN12C): 25.9 µM (inactive)
GI50 (COLO 205): 17.5 µM (inactive)
GI50 (TK-10): 35.3 µM (inactive)
GI50 (KM12): 33.7 µM (inactive)
GI50 (NCI-H460): 32.1 µM (inactive)
GI50 (HCC 2998): 20.5 µM (inactive)
GI50 (U-251): 19.7 µM (inactive)
GI50 (SR): 15.7 µM (inactive)
GI50 (OVCAR-3): 15.4 µM (inactive)
GI50 (NCI/ADR-RES): > 100 µM (inactive)
GI50 (NCI-H226): > 100 µM (inactive)
GI50 (HCT-15): 44.2 µM
GI50 (LOX IMVI): 17.6 µM (inactive)
GI50 (IGROV-1): 33.7 µM (inactive)
GI50 (OVCAR-5): > 100 µM (inactive)
GI50 (RPMI-8226): 6.5 µM (inactive)
GI50 (A498): > 100 µM (inactive)
GI50 (HOP-92): 45 µM (inactive)
GI50 (HCT-116): 18.3 µM (inactive)
GI50 (NCI-H23): 16 µM (inactive)
GI50 (HOP-62): 55.1 µM (inactive)
GI50 (SF-295): > 100 µM (inactive)
GI50 (EKVX): 12.5 µM (inactive)
GI50 (OVCAR-8): 30.6 µM (inactive)
GI50 (MOLT-4): 15.5 µM (inactive)
GI50 (SF-268): 33.3 µM (inactive)
GI50 (Hs-578T): 30.7 µM (inactive)
GI50 (786-0): 27.4 µM (inactive)
GI50 (M14): 19.4 µM (inactive)
GI50 (Malme-3M): 19.3 µM (inactive)
GI50 (K562): 22.6 µM (inactive)
GI50 (SF-539): 17.5 µM (inactive)
GI50 (SW-620): 12.2 µM (inactive)
GI50 (MDA-N): 30.6 µM (inactive)
GI50 (OVCAR-4): 36.6 µM (inactive)
GI50 (UO-31): 39 µM (inactive)

Cc1ccc2c(c1)C=CC(C#N)N2C(=O)Oc1ccccc1 (configuration not stated)
GI50 (UACC-62): 31.4 µM (inactive)
GI50 (T47D): 20.8 µM (inactive)
GI50 (HL-60): 18.9 µM (inactive)
GI50 (MDA-MB-231): 38.9 µM (inactive)
GI50 (PC-3): 26.3 µM (inactive)
GI50 (SNB-19): 31.8 µM (inactive)
GI50 (UACC-257): 39.8 µM (inactive)
GI50 (MCF7): 19.7 µM (inactive)
GI50 (RXF 393): 37.7 µM (inactive)
GI50 (SK-MEL-28): 77.8 µM (inactive)
GI50 (CAKI-1): 57.4 µM (inactive)
GI50 (MDA-MB-435): 14.5 µM (inactive)
GI50 (DU-145): 17.9 µM (inactive)
GI50 (SNB-75): 40.6 µM (inactive)
GI50 (SK-MEL-5): 24.3 µM (inactive)
GI50 (BT-549): 22.8 µM (inactive)
GI50 (SK-MEL-2): 22.7 µM (inactive)
GI50 (HT-29): 18.7 µM (inactive)
GI50 (NCI-H522): 16.3 µM (inactive)
GI50 (A549): 29.5 µM (inactive)
GI50 (ACHN): 27 µM (inactive)
GI50 (SN12C): 35.8 µM (inactive)
GI50 (COLO 205): 25.9 µM (inactive)
GI50 (TK-10): 31 µM (inactive)
GI50 (KM12): 17.1 µM (inactive)
GI50 (NCI-H460): 29.6 µM (inactive)
GI50 (HCC 2998): 16.6 µM (inactive)
GI50 (U-251): 23.7 µM (inactive)
GI50 (SR): 19.4 µM (inactive)
GI50 (NCI/ADR-RES): 20.2 µM (inactive)
GI50 (NCI-H226): 31 µM (inactive)
GI50 (HCT-15): 21.1 µM
GI50 (LOX IMVI): 20.6 µM (inactive)
GI50 (IGROV-1): 36 µM (inactive)
GI50 (OVCAR-5): 61.4 µM (inactive)
GI50 (RPMI-8226): 17.9 µM (inactive)
GI50 (A498): 20.6 µM (inactive)
GI50 (HOP-92): 30.2 µM (inactive)
GI50 (HCT-116): 37.9 µM (inactive)
GI50 (NCI-H23): 19.5 µM (inactive)
GI50 (EKVX): 18.1 µM (inactive)
GI50 (OVCAR-8): 17.4 µM (inactive)
GI50 (MOLT-4): 19.6 µM (inactive)
GI50 (SF-268): 29.9 µM (inactive)
GI50 (Hs-578T): 41.6 µM (inactive)
GI50 (786-0): 43.7 µM (inactive)
GI50 (CCRF-CEM): 17.2 µM (inactive)
GI50 (M14): 40.8 µM (inactive)
GI50 (Malme-3M): 33 µM (inactive)
GI50 (K562): 23.7 µM (inactive)
GI50 (SF-539): 60.7 µM (inactive)
GI50 (SW-620): 30.5 µM (inactive)
GI50 (MDA-N): 29 µM (inactive)
GI50 (OVCAR-4): 24.7 µM (inactive)
GI50 (UO-31): 27.7 µM (inactive)

Source: ChEMBL document CHEMBL1201862, “PubChem BioAssay data set” (2004)
